The values below come from patent US8524978B2, “Composition for production of plant body having improved sugar content, and use thereof” (Japan Science and Technology Agency, priority 2007, dated 2013).

What all share (type): in vivo
The subject of experiment [1] is Vitis labrusca (Delaware). In words: Cultivation of Vitis labrusca with GSSG or GSH, sensory test (Example 5). How it is done: In the present invention, Vitis labrusca was cultivated. Specifically, immediately after flowering of a Vitis labrusca (Delaware) plant, a mixed solution of 1 mM gibberellin (GA3) and 1 mM of an agent was applied to anthotaxy of the plant. The agent was GSSG or GSH. Then, the plant was coated with the agent and thereafter produced fruit was harvested. For comparison, a Vitis labrusca plant was cultivated in the same way, except that GA3, but not GSSG or GSH, was applied, and fruit thereof was harvested and subjected to a sensory test described below.
The fruit harvested was subjected to a sensory test of sugar content. As a result, it was determined that fruit of the plant applied with GA3 and GSSG or GSH increased in sugar content compared to that of the plant applied with only GA3. Further, it was determined that the plant applied with GSSG and GA3 increased in size of fruit.

The test system of experiment [2] is Fragaria ananassa. Put plainly: Sugar content determination of Fragaria ananassa fruit with refractometer (Example 10). The settings on record: 50 mL of 0.2 or 0.5 mM GSSG, or 0.4 or 0.5 mM GSH, once a week at root; significance level 5%. How it is done:
(§1) First, Fragaria ananassa seedlings were transplanted to a planter. In the planter, 6 L of vermiculite (ASAHI INDUSTRIES Co., LTD.), 3 L of KUREHA horticultural soil (KUREHA CORPORATION), and 3 L of vermiculite were layered as a lower, middle, and upper layers, respectively.
(§2) During cultivation of Fragaria ananassa plants, 50 mL of 0.2 mM or 0.5 mM GSSG or 50 mL of 0.4 mM or 0.5 mM GSH (adjusted with 0.1N NaOH to be at pH7) was applied once a week at a root per plant. The plants were grown for 63 days without being subjected to bud removal. For comparison, a Fragaria ananassa plant was grown under the same condition, except that GSSG and GSH were not applied. To the plants of any condition, 3 g of Kumiai phosphorate ammonium nitrate potassium S-604 (Chisso Asahi Fertilizer Co., Ltd.) was applied as an additional fertilizer once in 2 weeks.
Further, the fruit obtained was subjected to sugar content determination using “Pocket” Refractometer APAL-1 (ATAGO CO., LTD.). For comparison, fruit not applied with GSSG or GSH was also subjected to the sugar content determination. […] In FIG. 7, the vertical scale indicates sugar content (Brix, unit: %).

Experiment [3] deals with Lycopersicum esculentum. Put plainly: Sugar content determination of Lycopersicum esculentum fruit with refractometer (Example 2). The settings on record: 0.5 mM applied as in Example 1; compared to Cont and Cont2 Sunny conditions; ANOVA 5%. The source says: Cultivated were Lycopersicum esculentum plants to which GSSG or GSH was applied by the method described in Example 1. Then, obtained fruit of the plants was subjected to sugar content determination using “Pocket” Refractometer APAL-1 (ATAGO CO., LTD.).
For comparison, Lycopersicum esculentum plants were cultivated under two types of conditions (referred to as “Cont” and “Cont2 Sunny”). In the Cont condition, Lycopersicum esculentum plants were cultivated by the same method as in Example 1, except that GSSG and GSH were not applied. In the Cont2 Sunny condition, a Lycopersicum esculentum plant was not applied with GSSG or GSH and was independently cultivated at a site sufficiently irradiated with sunlight so that illuminance on the Lycopersicum esculentum plant becomes 100%. In the Cont condition and a condition in which GSSG or GSH was applied, the plants were planted at intervals of 40 cm to 50 cm. In this case, a plant may intercept light irradiating another plant. Therefore, illuminance on such plants becomes less than 100%.
In the condition in which GSSG was applied, the condition in which GSH is applied, and the Cont condition, three Lycopersicum esculentum plants were cultivated, respectively. In the Cont2 Sunny condition, one Lycopersicum esculentum plant was cultivated. […]

For experiment [4], the system named is Fragaria ananassa. In words: Cultivation of Fragaria ananassa with GSSG or GSH, sensory tests of fruit (Example 10). The settings on record: 50 mL of 0.2 or 0.5 mM GSSG, or 0.4 or 0.5 mM GSH, once a week at root, 63 days. How it is done:
In the present example, Fragaria ananassa was cultivated with use of GSSG or GSH. Details of cultivation are described below.
as §1, §2
Next, the fruit harvested was subjected to sensory tests of sugar content and the like. As a result, it was determined that fruit of the plant applied with GSSG increased in sugar content and decreased in acidity compared to that of the plant not applied with GSSG or GSH. Further, it was determined that the plant applied with GSSG increased in number of fruit. It was also determined that fruit of the plant applied with GSH increased in sugar content and acidity.

For experiment [5], the system named is Lycopersicum esculentum. Put plainly: Cultivation of Lycopersicum esculentum with GSSG or GSH, sensory tests of fruit (Example 1). As to conditions: 50 mL of 0.5 mM at root twice a week, 60 days. The source says: In the present example, Lycopersicum esculentum was cultivated with use of GSSG or GSH. Details of cultivation are described below.
First, Lycopersicum esculentum seedlings (TAKII & CO. Ltd., product name: Osama tomato reika) were transplanted into a hydroponic culture pot ( 1/2000 a). In the hidroponic culture pot, 6 L of vermiculite (ASAHI INDUSTRIES Co., LTD.), 3 L of KUREHA horticultural soil (KUREHA CORPORATION), and 3 L of vermiculite were layered as a lower, middle, and upper layers, respectively.
During the cultivation of Lycopersicum esculentum, 50 mL of 0.5 mM GSSG or 0.5 mM GSH (adjusted with 0.1N NaOH to be at pH 7) was applied twice a week at a root per plant. The Lycopersicum esculentum plants were grown for 60 days without being subjected to bud removal. Last 10 days was used as a harvest period for harvesting fruit of the plants. For comparison, a Lycopersicum esculentum plant was grown under the same condition, except that GSSG and GSH were not applied. To the plants of any condition, 3 g of Kumiai phosphorate ammonium nitrate potassium S-604 (Chisso Asahi Fertilizer Co., Ltd.) was applied as an additional fertilizer once in 2 weeks.
Next, the fruit harvested was subjected to sensory tests of sugar content and the like. As a result, it was determined that fruit of the plant applied with GSSG increased in sugar content compared to that of the plant not applied with GSSG or GSH. Further, it was determined that the plant applied with GSSG increased in number of fruit. It was determined that fruit of the plant applied with GSH increased in sugar content and acidity.

The subject of experiment [6] is Lycopersicum esculentum. In words: Change of sugar content over time after one application of GSH or GSSG (Example 6). The settings on record: 50 mL of 0.5 mM once at root 90 days after sowing; fruit harvested day 0 to day 4.
Protocol: In the present example, a sugar content of a plant was determined after a substance for regulating an oxidation-reduction state of a cell was applied to the plant. The substance for regulating an oxidation-reduction state of a cell was GSH or GSSG. As in the case of Example 1, Lycopersicum esculentum was used as the plant. Specifically, the following operations were carried out.
Ninety days after sowing of Lycopersicum esculentum seeds, Lycopersicum esculentum plants were subjected to a GSH or GSSG treatment. The Lycopersicum esculentum plants were cultivated by the same method as in Example 1 except for the GSH or GSSG treatment. The GSH or GSSG treatment was such that 50 mL of 0.5 mM GSSH or 0.5 mM GSH (adjusted with 0.1N NaOH to be at pH 7) was applied once at a root per plant. Then, fruit of the plants was harvested every day from the 0th day until the 4th day after application of GSH or GSSG, and subjected to sugar content determination. […] FIG. 3 is a graph showing a determination result of relation between sugar content and the number of days from an application day of GSH or GSSG. In FIG. 3, the vertical scale indicates sugar content (Brix, unit: %) and the horizontal scale indicates days from the application day. In FIG. 3, lines labeled with circles, triangles, and squares show results of the plants applied with GSH, GSSG, and no GSH and no GSSG, respectively. […]

On to `N[C@@H](CCC(=O)N[C@@H](CS)C(=O)NCC(=O)O)C(=O)O` [GSH, reduced glutathione], for which the “sugar content of fruit (sensory test)” value in experiment [1] (1 mM agent mixed with 1 mM gibberellin (GA3), applied to anthotaxy, compared to plant applied with only GA3) was “increased”; in the experiment with Fragaria ananassa [4] (vs plant not applied), “increased”; with Lycopersicum esculentum [5] (compared to plant not applied with GSSG or GSH), “increased”. Besides, the sugar content result in experiment [1] (applied without GA3) is recorded as “increased”. The “sugar content of fruit (Brix), ANOVA versus fruit not applied” value with Fragaria ananassa [2] was “significant difference”. In addition, the “sugar content of fruit (Brix)” value in the experiment with Lycopersicum esculentum [3] is given as “significantly increased”. Also, the “acidity of fruit (sensory test)” value with Fragaria ananassa [4] and in the experiment on Lycopersicum esculentum [5] was “increased” in each case. The “sugar content of fruit (Brix) after application” value in the experiment on Lycopersicum esculentum [6] is reported as “rapidly improve”.
